In PMC7113582, “Peptide Self-Assembly Is Linked to Antibacterial, but Not Antifungal, Activity of Histatin 5 Derivatives” (mSphere, 2020):

Tests used:
[1] = tested on: S. epidermidis; assay: Bacterial kinetic growth inhibition analysis, S. epidermidis; format: cell-based, Staphylococcus epidermidis
[2] = tested on: E. coli bacteria (ATCC 25922); assay: Bacterial kinetic growth inhibition analysis, E. coli; format: cell-based, Escherichia coli
Description: Each of the peptides was diluted by serial 2-fold dilutions in M9 minimal media in Corning (3879) 96-well plates (Sigma-Aldrich, Israel). E. coli bacteria (ATCC 25922) were grown overnight in M9 minimal media and diluted 1,000-fold in M9 media and grown for 5 h at 37°C. In Corning (3596) 96-well plates, 75-μl volumes of the serial 2-fold dilutions of each test compound were added to 75 μl of growth medium containing bacteria (5 × 10̂^6 CFU/ml). Bacteria and test compounds were incubated overnight at 37°C, and kinetic growth inhibition was determined by measurements of optical density at 600 nm using a Biotek Synergy HT microplate reader.

[3] = Self-assembly observed by transmission electron microscopy; format: physicochemical; conditions: 1 mg/ml in water, heated 50 min at 90°C, cooled gradually to 25°C overnight; negative stain TEM
Description: Lyophilized powders of each of the peptides (Genscript Biotech, USA) were dissolved in ultrapure water (BioInd, Israel) to a concentration of 1 mg/ml and heated for 50 min at 90°C, allowing the peptides to reach the monomeric state, and were then allowed to cool gradually to 25°C overnight. This treatment facilitated the self-assembly and nanostructure formation of L7F but not dhvar2.
TEM imaging was performed by applying 10-μl samples to 400-mesh copper grids covered by a carbon-stabilized Formvar film (SPI, West Chester, PA, USA). The samples were allowed to adsorb for 2 min before excess fluid was blotted off. Negative staining was then achieved by depositing 10 μl of 2% uranyl acetate on the grid for 2 min before blotting off excess fluid. Micrographs were obtained using a Tecnai 12 electron microscope (FEI, Tokyo, Japan) operating at 120 kV.

[4] = tested on: Candida albicans (SC5341); assay: FITC uptake assay (membrane permeabilization); format: cell-based; conditions: C. albicans 2 × 10^7 cells per ml, 10 mM sodium phosphate buffer pH 7.4, 250 μg/ml peptide, 6 h at 30°C; no-peptide control 1%
Description: This assay was adapted from a previously reported method ([53]). Candida albicans (SC5341) cells were suspended (2 × 10^7 cells per ml) in 10 mM sodium phosphate buffer (pH 7.4) and treated with each of the peptides for 6 h at 30°C. Samples were then incubated with 6 μg/ml FITC (the stock solution is 10 mg/ml in acetone) plus 10 mM sodium phosphate buffer at 30°C for 30 min. A 10-μl volume of each sample was plated on an individual glass slide, and the slides were then washed with 10 mM sodium phosphate buffer thrice and examined using an Eclipse E600 fluorescence microscope (Nikon, Japan). The results presented are representative of three independent experiments.

[5] = Lipid/PDA vesicle fluorescent chromatic response, DOPC-containing model membrane; conditions: DOPC/DMPG/ErgS/PDA SUVs; peptide 1 mg/ml stock, Tris-base buffer pH 8.0, 27°C, %FCR
Description: (§1) Vesicles containing the diacetylene monomer 10,12-tricosadiynoic acid (TRCDA) and the lipid and ergosterol components DOPC/DMPG/ErgS/PDA and DOPE/DMPG/ErgS/PDA (1:0.6:0.4:3) were dissolved in chloroform/ethanol (1:1) and dried together in vacuo to reach a constant weight, followed by addition of deionized water to reach a final concentration of 1 mM, and were subsequently subjected to probe sonication at 40 W at 70°C for 3 min. The vesicle solution was subsequently cooled at room temperature and kept at 4°C overnight. The solution was then irradiated at 254 nm for 30s, resulting in intense blue color appearance due to polymerization of the diacethylene units.
(§2) Fluorescence was measured on a Fluscan Ascent microplate reader using a 96-well microplate (Grainer), excitation at 485 nm and emission at 555 nm, and long-pass (LP) filters with normal slits. The background fluorescence from the vesicles alone was negligible. Samples were prepared for fluorescence measurements by adding 30 μl of each of the peptides at 1 mg/ml to 30 μl of lipid/PDA vesicles followed by addition of 30 μl 50 mM Tris-base buffer (pH = 8.0). The samples were incubated at 27°C during the measurements. […]

[6] = Lipid/PDA vesicle fluorescent chromatic response, DOPE-containing model membrane; conditions: DOPE/DMPG/ErgS/PDA SUVs; peptide 1 mg/ml stock, Tris-base buffer pH 8.0, 27°C, %FCR
Description: as §1, §2

[7] = kinetic growth inhibition, OD600

KRLFKEFLFSLRKY [L7F, single-amino-acid mutation L7F of dhvar2 (…), self-assembling derivative]
antibacterial activity, fold more active than dhvar2 [1, 7]: 2 fold | peptide concentration that completely inhibited growth ([1]; serial 2-fold dilutions, OD600, representative of three experiments): 250 µg/mL | antibacterial activity, fold more active than dhvar2 [2, 7]: 4 fold | peptide concentration that completely inhibited growth ([2]; serial 2-fold dilutions, 37°C, OD600, representative of three experiments): 125 µg/mL | self-assembly / morphology of assemblies (TEM) [3]: long, unbranched nanoassemblies | FITC positive fluorescence (membrane permeabilization) [4]: 95%

KRLFKELLFSLRKY [dhvar2, well-characterized histatin 5 derivative, …, reference compound]
self-assembly / morphology of assemblies (TEM) [3]: no ordered assemblies | colorimetric response, fold lower than that to L7F [5]: 2 fold | FITC positive fluorescence (membrane permeabilization) [4]: 95% | fluorescent chromatic response, fold lower than that to L7F [6]: 2 fold
